Measurements as given in patent US12077503B2, “Substituted cyclic amides and their use as herbicides” (FMC CORPORATION, priority 2015, dated 2024).
Like-named read-outs stand apart in the source and are kept apart here.

Tests used:
Assay type in all cases: in vivo
[1] = tested on: sedge, umbrella (small-flower umbrella sedge, Cyperus difformis); test: Test B flooded paddy test; details: Cyperus difformis, 250 g ai/ha, Flood, read-out: Sedge, Umbrella plant response rating
How it was run: (§1)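 2-leaf plants; pots flooded 3 cm over soil; cpd added to paddy water; depth held; greenhouse 13–15 d; visual rating vs controls, 0 = no effect, 100 = complete control.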

[2] = tested on: barnyardgrass (Echinochloa crus-galli); test: Test B flooded paddy test; details: Echinochloa crus-galli, 250 g ai/ha, Flood, read-out: Barnyardgrass plant response rating
How it was run: as §1

[3] = tested on: ducksalad (Heteranthera limosa); test: Test B flooded paddy test; details: Heteranthera limosa, 250 g ai/ha, Flood, read-out: Ducksalad plant response rating
How it was run: as §1

[4] = tested on: rice (Oryra sativa); test: Test B flooded paddy test; details: Oryza sativa, 250 g ai/ha, Flood, read-out: Rice plant response rating
How it was run: as §1

[5] = tested on: pigweed (Amaranthus retroflexus); test: Test A preemergence; details: Amaranthus retroflexus, pre-emergence, 240 h; for pest or weed control at 125 g/ha: 125 g ai/ha; for pest or weed control at 500 g/ha: 500 g ai/ha, visual injury rating about 10 d after treatment, 0 to 100 scale (0 no effect, 100 complete control)
[6] = tested on: ryegrass, Italian (Italian ryegrass, Lolium multiflorum); test: Test A postemergence; details: Lolium multiflorum, post-emergence, 240 h, 125 g ai/ha
How it was run: (§2)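 Compounds were formulated in a non-phytotoxic solvent mixture with surfactant and applied as a preemergence directed soil spray after seeding, or sprayed postemergence over plants 2 to 10 cm tall at the one- to two-leaf stage. Evaluation after about 10 d compared treated with untreated controls, using a scale from 0 (no effect) to 100 (complete control).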

[7] = tested on: corn (Zea mays); test: Test A postemergence; details: Zea mays, post-emergence, 240 h
How it was run: as §2

[8] = tested on: wheat (Triticum aestivum); test: Test A postemergence; details: Triticum aestivum, post-emergence, 240 h, 125 g ai/ha
How it was run: as §2

[9] = tested on: giant foxtail (Setaria faberii); test: Test A postemergence; details: Setaria faberi, post-emergence, 240 h; for pest or weed control at 125 g/ha: 125 g ai/ha
How it was run: as §2

[10] = tested on: barnyardgrass (Echinochloa crus-galli); test: Test A postemergence; details: Echinochloa crus-galli, post-emergence, 240 h; for pest or weed control at 125 g/ha: 125 g ai/ha
How it was run: as §2

[11] = tested on: ragweed (common ragweed, Ambrosia elatior); test: Test A postemergence; details: Ambrosia artemisiifolia, post-emergence, 240 h, 125 g ai/ha
How it was run: as §2

[12] = tested on: Kochia (Kochia scoparia); test: Test A postemergence; details: Bassia scoparia, post-emergence, 240 h; for pest or weed control at 125 g/ha: 125 g ai/ha
How it was run: as §2

[13] = tested on: blackgrass (Alopecurus myosuroides); test: Test A postemergence; details: Alopecurus myosuroides, post-emergence, 240 h; for pest or weed control at 125 g/ha: 125 g ai/ha
How it was run: as §2

[14] = tested on: pigweed (Amaranthus retroflexus); test: Test A postemergence; details: Amaranthus retroflexus, post-emergence, 240 h, 125 g ai/ha
How it was run: as §2

[15] = tested on: Galium (catchweed bedstraw, Galium aparine); test: Test A postemergence; details: Galium, post-emergence, 240 h; for pest or weed control at 125 g/ha: 125 g ai/ha
How it was run: as §2

[16] = 0 to 100 scale where 0 is no effect and 100 is complete control
[17] = preemergence, read-out: Pigweed plant response rating
[18] = scale of 0 to 100 where 0 is no effect and 100 is complete control

Cc1cc([C@H]2CNC(=O)[C@@H]2C(=O)Nc2ccc(F)cc2F)ccc1C(F)(F)F [Compound 1043]
pest or weed control at 250 g/ha [1, 16]: 0%
pest or weed control at 250 g/ha [2, 16]: 0%
pest or weed control at 250 g/ha [3, 16]: 90%
pest or weed control at 250 g/ha [4, 16]: 0%
pest or weed control at 125 g/ha ([5]; Preemergence, visual injury rating after approximately 10 d, read-out: Pigweed plant response rating (0 to 100 scale, 0 is no effect, 100 is complete control)): 0%
pest or weed control at 500 g/ha [5, 17]: 20%
pest or weed control at 125 g/ha ([6]; postemergence, visual injury on 0 to 100 scale (0 no effect, 100 complete control), approx. 10 d, read-out: Ryegrass, Italian plant response rating): 0%
plant injury at 125 g/ha ([7]; 125 g ai/ha, postemergence, visual injury on 0 to 100 scale (0 no effect, 100 complete control), approx. 10 d, read-out: Corn plant response rating): 20%
Corn plant response rating (crop injury, 0 = no effect, 100 = complete kill) at 500 g/ha ([7]; 500 g ai/ha, postemergence, visual injury, 0 to 100 scale (0 no effect, 100 complete control), approx. 10 d): 60%
plant injury at 125 g/ha ([8]; postemergence, visual injury on 0 to 100 scale (0 no effect, 100 complete control), approx. 10 d, read-out: Wheat plant response rating): 0%
pest or weed control at 125 g/ha ([9]; postemergence, visual injury on 0 to 100 scale (0 no effect, 100 complete control), approx. 10 d, read-out: Foxtail, Giant plant response rating): 70%
pest or weed control at 500 g/ha ([9]; 500 g ai/ha, postemergence, visual injury, 0 to 100 scale (0 no effect, 100 complete control), approx. 10 d, read-out: Plant response rating, Foxtail, Giant): 80%
pest or weed control at 125 g/ha ([10]; postemergence, visual injury on 0 to 100 scale (0 no effect, 100 complete control), approx. 10 d, read-out: Barnyardgrass plant response rating): 50%
pest or weed control at 500 g/ha ([10]; 500 g ai/ha, postemergence, visual injury, 0 to 100 scale (0 no effect, 100 complete control), approx. 10 d, read-out: Plant response rating, Barnyardgrass): 80%
pest or weed control at 125 g/ha ([11]; postemergence, visual injury on 0 to 100 scale (0 no effect, 100 complete control), approx. 10 d, read-out: Ragweed plant response rating): 0%
pest or weed control at 125 g/ha ([12]; postemergence, visual injury on 0 to 100 scale (0 no effect, 100 complete control), approx. 10 d, read-out: Kochia plant response rating): 0%
pest or weed control at 500 g/ha ([12]; 500 g ai/ha, postemergence, visual injury, 0 to 100 scale (0 no effect, 100 complete control), approx. 10 d, read-out: Plant response rating, Kochia): 40%
pest or weed control at 125 g/ha ([13]; postemergence, visual injury on 0 to 100 scale (0 no effect, 100 complete control), approx. 10 d, read-out: Blackgrass plant response rating): 20%
pest or weed control at 500 g/ha ([13]; 500 g ai/ha, postemergence, visual injury, 0 to 100 scale (0 no effect, 100 complete control), approx. 10 d, read-out: Plant response rating, Blackgrass): 30%
pest or weed control at 125 g/ha ([14]; postemergence, visual injury on 0 to 100 scale (0 no effect, 100 complete control), approx. 10 d, read-out: Pigweed plant response rating): 0%
pest or weed control at 125 g/ha ([15]; postemergence, visual injury on 0 to 100 scale (0 no effect, 100 complete control), approx. 10 d, read-out: Galium plant response rating): 20%
pest or weed control at 500 g/ha ([15]; 500 g ai/ha, postemergence, visual injury, 0 to 100 scale (0 no effect, 100 complete control), approx. 10 d, read-out: Plant response rating, Galium): 40%

Cc1cc([C@H]2CN(C)C(=O)[C@@H]2C(=O)Nc2ccc(F)c(F)c2F)ccc1Cl [Compound 931]
pest or weed control at 250 g/ha [1, 18]: 0%
pest or weed control at 250 g/ha [2, 18]: 65%
pest or weed control at 250 g/ha [3, 18]: 60%
pest or weed control at 250 g/ha [4, 18]: 0%
pest or weed control at 125 g/ha ([5]; preemergence, 0 to 100 scale where 0 is no effect and 100 is complete control, read-out: Pigweed plant response rating): 30%
pest or weed control at 500 g/ha [5, 17]: 40%
pest or weed control at 125 g/ha ([6]; Postemergence, visual injury after approximately 10 d, 0 to 100 scale where 0 is no effect and 100 is complete control, read-out: Plant response rating, Ryegrass, Italian): 30%
Corn plant response rating (crop injury, 0 = no effect, 100 = complete kill) at 125 g/ha ([7]; 125 g ai/ha, Postemergence, visual injury after approximately 10 d, 0 to 100 scale where 0 is no effect and 100 is complete control): 70%
plant injury at 125 g/ha ([8]; Postemergence, visual injury after approximately 10 d, 0 to 100 scale where 0 is no effect and 100 is complete control, read-out: Plant response rating, Wheat): 30%
pest or weed control at 125 g/ha ([9]; Postemergence, visual injury after approximately 10 d, 0 to 100 scale where 0 is no effect and 100 is complete control, read-out: Plant response rating, Foxtail, Giant): 90%
pest or weed control at 125 g/ha ([10]; Postemergence, visual injury after approximately 10 d, 0 to 100 scale where 0 is no effect and 100 is complete control, read-out: Plant response rating, Barnyardgrass): 80%
pest or weed control at 125 g/ha ([11]; Postemergence, visual injury after approximately 10 d, 0 to 100 scale where 0 is no effect and 100 is complete control, read-out: Plant response rating, Ragweed): 0%
pest or weed control at 125 g/ha ([12]; Postemergence, visual injury after approximately 10 d, 0 to 100 scale where 0 is no effect and 100 is complete control, read-out: Plant response rating, Kochia): 30%
pest or weed control at 125 g/ha ([13]; Postemergence, visual injury after approximately 10 d, 0 to 100 scale where 0 is no effect and 100 is complete control, read-out: Plant response rating, Blackgrass): 20%
pest or weed control at 125 g/ha ([14]; Postemergence, visual injury after approximately 10 d, 0 to 100 scale where 0 is no effect and 100 is complete control, read-out: Plant response rating, Pigweed): 20%
pest or weed control at 125 g/ha ([15]; Postemergence, visual injury after approximately 10 d, 0 to 100 scale where 0 is no effect and 100 is complete control, read-out: Plant response rating, Galium): 40%
